Measured values published in ChEMBL document CHEMBL4177703, “The discovery and optimization of naphthalene-linked P2-P4 Macrocycles as inhibitors of HCV NS3 protease” (Bioorg Med Chem Lett, 2018).

Key:
[1] = Clearance in rat at 5 mg/kg, iv or 15 mg/kg, po; type: ADME, organism-based; conditions: in vivo
[2] = Oral bioavailability in rat at 15 mg/kg; type: ADME, organism-based; conditions: in vivo
[3] = Drug concentration in Sprague-Dawley rat liver at 5 mg/kg, iv after 6 hrs; type: ADME, organism-based; conditions: read-out: Drug uptake
[4] = AUC in Sprague-Dawley rat at 5 mg/kg, iv after 6 hrs; type: ADME, organism-based; set-up: time < 6 hr, dose 5 mg/kg, route intravenous; conditions: in vivo
[5] = Half life in human liver microsomes in presence of NADPH; type: ADME, microsome
[6] = AUC in Sprague-Dawley rat at 15 mg/kg, po after 6 hrs; type: ADME, organism-based; set-up: dose 15 mg/kg, time < 6 hr, route oral; conditions: in vivo
[7] = Drug concentration in Sprague-Dawley rat liver at 15 mg/kg, po after 6 hrs; type: ADME, organism-based; conditions: read-out: Drug uptake
[8] = Clearance in Sprague-Dawley rat at 5 mg/kg, iv after 6 hrs; type: ADME, organism-based; conditions: in vivo
[9] = AUC in Sprague-Dawley rat at 15 mg/kg, po after 24 hrs; type: ADME, organism-based; set-up: time < 24 hr, dose 15 mg/kg, route oral; conditions: in vivo
[10] = Half life in Sprague-Dawley rat at 5 mg/kg, iv after 24 hrs; type: ADME, organism-based; conditions: in vivo
[11] = AUC in Sprague-Dawley rat at 5 mg/kg, iv after 24 hrs; type: ADME, organism-based; set-up: dose 5 mg/kg, time < 24 hr, route intravenous; conditions: in vivo
[12] = Clearance in Sprague-Dawley rat at 5 mg/kg, iv after 24 hrs; type: ADME, organism-based; conditions: in vivo
[13] = Half life in Sprague-Dawley rat at 15 mg/kg, po after 24 hrs; type: ADME, organism-based; conditions: in vivo
[14] = Oral bioavailability in Sprague-Dawley rat at 15 mg/kg after 24 hrs; type: ADME, organism-based; conditions: in vivo
[15] = Drug concentration in Sprague-Dawley rat liver at 15 mg/kg, po after 24 hrs; type: ADME, organism-based; conditions: read-out: Drug uptake
[16] = Cardiotoxicity in Langendorff perfused rabbit heart assessed as change in QT interval at 10 uM measured over 10 mins by electrocardiography (reference value: 0%); type: toxicity, tissue-based, Oryctolagus cuniculus
[17] = Cardiotoxicity in Langendorff perfused rabbit heart assessed as change in coronary flow at 10 uM measured over 30 mins by electrocardiography (reference value: 0%); type: toxicity, tissue-based, Oryctolagus cuniculus; conditions: 0.5 h
[18] = Cardiotoxicity in Langendorff perfused rabbit heart assessed as change in coronary flow at 10 uM measured over 10 mins by electrocardiography (reference value: 0%); type: toxicity, tissue-based, Oryctolagus cuniculus
[19] = Cardiotoxicity in Langendorff perfused rabbit heart assessed as change in PR interval at 10 uM measured over 20 mins by electrocardiography (reference value: 0%); type: toxicity, tissue-based, Oryctolagus cuniculus
[20] = Cardiotoxicity in Langendorff perfused rabbit heart assessed as change in QRS interval at 10 uM measured over 20 mins by electrocardiography (reference value: 0%); type: toxicity, tissue-based, Oryctolagus cuniculus
[21] = Cardiotoxicity in Langendorff perfused rabbit heart assessed as change in heart rate at 10 uM measured over 10 mins by electrocardiography (reference value: 0%); type: toxicity, tissue-based, Oryctolagus cuniculus
[22] = Cardiotoxicity in Langendorff perfused rabbit heart assessed as change in sinus node recovery time at 10 uM measured over 20 mins by electrocardiography (reference value: 0%); type: toxicity, tissue-based, Oryctolagus cuniculus
[23] = Cardiotoxicity in Langendorff perfused rabbit heart assessed as change in QRS interval at 10 uM measured over 10 mins by electrocardiography (reference value: 0%); type: toxicity, tissue-based, Oryctolagus cuniculus
[24] = Cardiotoxicity in Langendorff perfused rabbit heart assessed as change in coronary flow at 10 uM measured over 20 mins by electrocardiography (reference value: 0%); type: toxicity, tissue-based, Oryctolagus cuniculus
[25] = Drug concentration in Sprague-Dawley rat liver at 5 mg/kg, iv after 24 hrs; type: ADME, organism-based; conditions: read-out: Drug uptake
[26] = Cardiotoxicity in Langendorff perfused rabbit heart assessed as change in QT interval at 10 uM measured over 20 mins by electrocardiography (reference value: 0%); type: toxicity, tissue-based, Oryctolagus cuniculus
[27] = Cardiotoxicity in Langendorff perfused rabbit heart assessed as change in QRS interval at 10 uM measured over 30 mins by electrocardiography (reference value: 0%); type: toxicity, tissue-based, Oryctolagus cuniculus; conditions: 0.5 h
[28] = Cardiotoxicity in Langendorff perfused rabbit heart assessed as change in sinus node recovery time at 10 uM measured over 10 mins by electrocardiography (reference value: 0%); type: toxicity, tissue-based, Oryctolagus cuniculus
[29] = Cardiotoxicity in Langendorff perfused rabbit heart assessed as change in PR interval at 10 uM measured over 10 mins by electrocardiography (reference value: 0%); type: toxicity, tissue-based, Oryctolagus cuniculus
[30] = Cardiotoxicity in Langendorff perfused rabbit heart assessed as change in heart rate at 10 uM measured over 30 mins by electrocardiography (reference value: 0%); type: toxicity, tissue-based, Oryctolagus cuniculus; conditions: 0.5 h
[31] = Cardiotoxicity in Langendorff perfused rabbit heart assessed as change in QT interval at 10 uM measured over 30 mins by electrocardiography (reference value: 0%); type: toxicity, tissue-based, Oryctolagus cuniculus; conditions: 0.5 h
[32] = Cardiotoxicity in Langendorff perfused rabbit heart assessed as change in heart rate at 10 uM measured over 20 mins by electrocardiography (reference value: 0%); type: toxicity, tissue-based, Oryctolagus cuniculus
[33] = Cardiotoxicity in Langendorff perfused rabbit heart assessed as change in PR interval at 10 uM measured over 30 mins by electrocardiography (reference value: 0%); type: toxicity, tissue-based, Oryctolagus cuniculus; conditions: 0.5 h
[34] = Cardiotoxicity in Langendorff perfused rabbit heart assessed as change in sinus node recovery time at 10 uM measured over 30 mins by electrocardiography (reference value: 0%); type: toxicity, tissue-based, Oryctolagus cuniculus; conditions: 0.5 h

C=C[C@@H]1C[C@]1(NC(=O)[C@@H]1C[C@@H](Oc2ncc(OC)c3ccc(Cl)cc23)CN1C(=O)[C@@H](NC(=O)OC(C)(C)C)C(C)(C)C)C(=O)NS(=O)(=O)C1CC1
clearance [1]: 38 mL/min/kg
bioavailability [2]: 12%

C=C[C@@H]1C[C@]1(NC(=O)[C@@H]1C[C@]2(OC)CN1C(=O)[C@H](C(C)(C)C)NC(=O)OCCCCCCc1cc3cc2ccc3cc1OC)C(=O)NS(=O)(=O)C1CC1
concentration at 6 h [3]: 95 µM
AUC at 6 h [4]: 90 µM·h
half-life [5]: 25 min
AUC at 6 h [6]: 27 µM·h
concentration at 6 h [7]: 108 µM
clearance [8]: 1.2 mL/min/kg

C=C[C@@H]1C[C@]1(NC(=O)[C@@H]1C[C@]2(OC)CN1C(=O)[C@H](C(C)(C)C)NC(=O)OCC(C)(C)CCCCc1cc3cc2ccc3cc1OC)C(=O)NS(=O)(=O)C1CC1
half-life [5]: 58 min

COc1cc2ccc3cc2cc1OCCCN(C1CC1)CCOC(=O)N[C@@H](C(C)(C)C)C(=O)N1C[C@@]3(OC)C[C@H]1C(=O)N[C@]1(C(=O)NS(=O)(=O)C2CC2)C[C@H]1C1CC1
half-life [5]: 43 min
AUC at 24 h [9]: 18 µM·h
half-life [10]: 1200 min
AUC at 24 h [11]: 33 µM·h
clearance [12]: 3.5 mL/min/kg
half-life [13]: 480 min
bioavailability [14]: 18%

COc1cc2ccc3cc2cc1CCCC(C)(C)CCOC(=O)N[C@@H](C(C)(C)C)C(=O)N1C[C@@]3(OC)C[C@H]1C(=O)N[C@]1(C(=O)NS(=O)(=O)C2CC2)C[C@H]1C1CC1
concentration at 24 h [15]: 85 µM
Activity [16]: -4%
Activity [17]: -10%
half-life [5]: 76 min
Activity [18]: 43%
Activity [19]: 0%
AUC at 24 h [9]: 87 µM·h
Activity [20]: 31%
Activity [21]: 5%
Activity [22]: 16%
half-life [10]: 576 min
Activity [23]: 17%
AUC at 24 h [11]: 29 µM·h
clearance [12]: 3.5 mL/min/kg
Activity [24]: 14%
concentration at 24 h [25]: 100 µM
Activity [26]: 0%
Activity [27]: 31%
half-life [13]: 234 min
Activity [28]: 3%
Activity [29]: 4%
Activity [30]: -16%
Activity [31]: 0%
Activity [32]: -5%
bioavailability [14]: 100%
Activity [33]: 0%

COc1cc2ccc3cc2cc1CCCCCCOC(=O)N[C@@H](C(C)(C)C)C(=O)N1C[C@@]3(OC)C[C@H]1C(=O)N[C@]1(C(=O)NS(=O)(=O)C2CC2)C[C@H]1C1CC1
Activity [16]: 7%
Activity [17]: 19%
half-life [5]: 99 min
Activity [18]: 18%
Activity [19]: 9%
AUC at 24 h [9]: 59 µM·h
Activity [20]: 32%
Activity [21]: -2%
Activity [22]: 6%
Activity [34]: 19%
half-life [10]: 570 min
Activity [23]: 10%
AUC at 24 h [11]: 57 µM·h
clearance [12]: 2 mL/min/kg
Activity [24]: 21%
Activity [26]: 10%
Activity [27]: 43%
half-life [13]: 318 min
Activity [28]: 4%
Activity [29]: 2%
Activity [30]: -13%
Activity [31]: 7%
Activity [32]: -5%
bioavailability [14]: 34%
Activity [33]: 18%

COC(=O)N1CCCOc2cc3cc(ccc3cc2OC)[C@]2(OC)C[C@@H](C(=O)N[C@]3(C(=O)NS(=O)(=O)C4CC4)C[C@H]3C3CC3)N(C2)C(=O)[C@H](C(C)(C)C)NC(=O)OCC1
half-life [5]: > 120 min

C=C[C@@H]1C[C@]1(NC(=O)[C@@H]1C[C@]2(OC)CN1C(=O)[C@H](C(C)(C)C)NC(=O)OCCCCCOc1ccc3ccc2cc3c1)C(=O)NS(=O)(=O)C1CC1
half-life [5]: 22 min

C=C[C@@H]1C[C@]1(NC(=O)[C@@H]1C[C@@](OC)(c2ccc3cc(OC)ccc3c2)CN1C(=O)[C@@H](NC(=O)OC(C)(C)C)C(C)(C)C)C(=O)NS(=O)(=O)C1CC1
half-life [5]: 21 min

COc1cc2ccc3cc2cc1CCCCC(C)(C)COC(=O)N[C@@H](C(C)(C)C)C(=O)N1C[C@@]3(OC)C[C@H]1C(=O)N[C@]1(C(=O)NS(=O)(=O)C2CC2)C[C@H]1C1CC1
half-life [5]: 83 min

C=Cc1cc2cc([C@]3(OC)C[C@@H](C(=O)N[C@]4(C(=O)NS(=O)(=O)C5CC5)C[C@H]4C=C)N(C(=O)[C@@H](NC(=O)OC(C)(C)C)C(C)(C)C)C3)ccc2cc1OC
half-life [5]: 36 min

C=C[C@@H]1C[C@]1(NC(=O)[C@@H]1C[C@]2(OC)CN1C(=O)[C@H](C(C)(C)C)NC(=O)OCCCCCCCCc1cc3cc2ccc3cc1OC)C(=O)NS(=O)(=O)C1CC1
half-life [5]: 33 min

CO[C@@]12C[C@@H](C(=O)N[C@]3(C(=O)NS(=O)(=O)C4CC4)C[C@H]3C3CC3)N(C1)C(=O)[C@H](C(C)(C)C)NC(=O)OCCCCCOc1ccc3ccc2cc3c1
concentration at 24 h [15]: 31 µM
half-life [5]: 39 min
AUC at 24 h [9]: 3.6 µM·h
half-life [10]: 276 min
AUC at 24 h [11]: 7.2 µM·h
clearance [12]: 19 mL/min/kg
concentration at 24 h [25]: 45 µM
half-life [13]: 252 min
bioavailability [14]: 16%
